# Measurements published in patent publication US6784204B2, “Antibiotic cytosporacin” (Wyeth Holdings Corporation, Five Giralda Farms, priority 2002, dated 2004).
# Columns and labels:
# Assay in all cases: MIC by broth dilution method
# Assay type in all cases: cell-based
# [1] = system: Escherichia coli 442 (GC4559); details: 18 hours at 35° C.
# Method: (§1) The minimum inhibitory concentration (MIC), the lowest concentration of the antibiotic which inhibits growth of the test organism, is determined by the broth dilution method using Muller-Hinton II […] (Baltimore Biological Laboratories) following the recommendations of the National Committee for Clinical Laboratory Standards [Methods for dilution antimicrobial susceptibility tests for bacteria that grow aerobically. Approved standard M7-A2. National Committee for Clinical Laboratory Standards, Villanova, Pa].
# (§2) An inoculum level of 5×10^5 CFU/ml, and a range of antibiotic concentrations (256-1.0 μg/ml) is used. The MIC is determined after the microtiter plates are incubated for 18 hours at 35° C. in an ambient air incubator. The test organisms comprise a spectrum of Gram-positive bacteria comprised of Staphylococcus sp., Enterococcus sp., Gram-negative bacterium Escherichia coli, and the yeast Candida albicans. These organisms include recent clinical isolates that are resistant to piperacillin and vancomycin.
# [2] = system: Staphylococcus aureus 310 (SSC8224, methicillin-resistant); details: 18 hours at 35° C.
# Method: as §1, §2
# [3] = system: Candida albicans 54 (CA300); details: 18 hours at 35° C.
# Method: as §1, §2
# [4] = system: Enterococcus faecium 436 (ID3151); details: 18 hours at 35° C.
# Method: as §1, §2
# [5] = system: Escherichia coli 389 (GC4560 imp); details: 18 h
# Method: as §1, §2
# [6] = system: Staphylococcus aureus 375 (ATCC3538p); details: 18 hours at 35° C.
# Method: as §1, §2
# [7] = system: Enterococcus faecium 379 (NC12204, vancomycin-resistant); details: 18 hours at 35° C.
# Method: as §1, §2
# [8] = system: Bacillus subtilis 327 (BGSC-1A1); details: 18 hours at 35° C.
smiles,measurement,setting,value
C=C1OC(=O)c2c(cc3c(C4=C5C=C(O)C(=O)C(O)=C5C(CCCCCCC)OC4=O)c(O)cc(O)c3c2O)C1O (centres unmarked) [Cytosporacin],MIC,[1],256 µg/mL
same,MIC,[2],32 µg/mL
same,MIC,[3],> 256 µg/mL
same,MIC,[4],16 µg/mL
same,MIC,[5],64 µg/mL
same,MIC,[6],32 µg/mL
same,MIC,[7],64 µg/mL
same,MIC,[8],32 µg/mL
